A word on the TGI: it is the concentration at which net growth stops. Read a high TGI as less potent growth arrest. As a reminder, the GI50 is the concentration giving 50% growth inhibition.

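Five compound concentrations were applied to cells in 96-well plates for 48 hours; endpoints were derived by simple linear interpolation of the resulting dose-response curve. GI50 marks 50% less growth. TGI denotes the concentration required for complete inhibition of growth.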

Experimental findings from PubChem BioAssay (NCI) are described below.

Test systems include HCC-2998 colon; OVCAR-5 ovarian; MOLT-4 leukemia; CAKI-1 renal; HCT-116 colon; RXF 393 renal; NCI-H226 lung; HL-60(TB) leukemia; SR leukemia.
Common to all, as to test: DTP human tumour cell line panel, 48 h

Regarding `NC1=NC(=O)C(CC(=O)Nc2ccc(Cl)cc2Cl)S1` (stereo unspecified), the TGI in the assay with HCC-2998 colon, in the assay with OVCAR-5 ovarian, in the assay on MOLT-4 leukemia and in the assay with CAKI-1 renal was above 100 µM each time.
For `O=C1OC(=O)c2c1c(-c1ccccc1)nc1ccccc21`, the TGI in the assay on HCT-116 colon, with HCC-2998 colon, with RXF 393 renal, in the assay with NCI-H226 lung, with MOLT-4 leukemia and in the assay with CAKI-1 renal was above 100 µM throughout. The compound also yielded a total growth inhibition concentration (TGI) with HL-60(TB) leukemia above 100 µM.
Regarding `O=C(NCCNCCO)c1cccc2ccc(-c3ccccc3)nc12`, the TGI in the assay with HCT-116 colon came to 11.8 µM; with HCC-2998 colon, 17.1 µM; in the assay on OVCAR-5 ovarian, 18.2 µM; in the assay on RXF 393 renal, 15.5 µM; with NCI-H226 lung, 17.4 µM; in the assay on CAKI-1 renal, 14.1 µM. The TGI with HL-60(TB) leukemia was above 100 µM.
On to `Cc1ccc(C2C3Cc4ccccc4C3=NN2c2ccc(S(=O)(=O)/N=c3\scc(-c4ccccc4)n3-c3ccccc3)cc2)cc1` (stereo unspecified), for which the GI50 is 18.6 µM in the assay with HCT-116 colon; 11.1 µM in the assay with SR leukemia; 24.8 µM in the assay with RXF 393 renal; 21.4 µM in the assay with NCI-H226 lung; 12.8 µM in the assay on MOLT-4 leukemia; 18.6 µM in the assay on CAKI-1 renal. Besides, the GI50 with HL-60(TB) leukemia was 14.5 µM. Also, the TGI is above 100 µM in the assay on HCT-116 colon; 24.5 µM with SR leukemia; 64.6 µM in the assay on RXF 393 renal; 67.2 µM in the assay on NCI-H226 lung; 31.1 µM with MOLT-4 leukemia; 44.7 µM in the assay with CAKI-1 renal. In the assay on HL-60(TB) leukemia, this compound gave a TGI of 31.5 µM.
Take `O=Cc1ccc2c(c1I)OCO2`: the TGI in the assay on HCT-116 colon, with SR leukemia, with HCC-2998 colon, with OVCAR-5 ovarian, with NCI-H226 lung and in the assay with MOLT-4 leukemia was above 100 µM each time. In addition, the TGI in the assay with CAKI-1 renal and with HL-60(TB) leukemia was above 100 µM each time.
Turning to `ClC1=C(Cl)C(Cl)(Cl)c2c3c(c4c(c21)C(Cl)(Cl)C(Cl)=C4Cl)C(Cl)(Cl)C(Cl)=C3Cl`, the TGI in the assay with HCT-116 colon, in the assay on SR leukemia, with HCC-2998 colon, in the assay on NCI-H226 lung, with MOLT-4 leukemia and with HL-60(TB) leukemia was above 100 µM throughout.
As for `COc1ccc(-c2cc(=O)c3c(O)cccc3o2)c(OC)c1OC`, the TGI in the assay with HCT-116 colon, in the assay on HCC-2998 colon, in the assay on OVCAR-5 ovarian, with RXF 393 renal, with NCI-H226 lung and in the assay with MOLT-4 leukemia was above 100 µM each time. In addition, the concentration for total growth inhibition (TGI) in the assay on CAKI-1 renal and in the assay on HL-60(TB) leukemia was above 100 µM in each case.
In the case of `CC(C)(C)c1cc2nc(c1)C(C(F)(F)F)(C(F)(F)F)OB(Br)OC2(C(F)(F)F)C(F)(F)F`, the TGI in the assay on HCC-2998 colon was determined as 11.4 µM; in the assay with OVCAR-5 ovarian it was 8.39 µM; in the assay on RXF 393 renal it was 22 µM; in the assay with MOLT-4 leukemia, 0.28 µM; in the assay on CAKI-1 renal, 1.18 µM.
Take `O=C(O)CCNS(=O)(=O)c1ccc([N+](=O)[O-])cc1`: the TGI in the assay on HCC-2998 colon, in the assay on OVCAR-5 ovarian, with RXF 393 renal, in the assay on NCI-H226 lung, in the assay with MOLT-4 leukemia and in the assay with CAKI-1 renal was above 100 µM throughout. The compound further came in with a TGI with HL-60(TB) leukemia above 100 µM.
As to `COc1cc(C2(C)SCCCS2)cc(OC)c1OC`, the TGI in the assay on HCT-116 colon, in the assay with SR leukemia, in the assay with HCC-2998 colon, in the assay on OVCAR-5 ovarian, in the assay with NCI-H226 lung and with MOLT-4 leukemia was above 100 µM throughout. Also, the TGI with CAKI-1 renal and in the assay with HL-60(TB) leukemia was above 100 µM throughout.
Regarding `C[C@@H]1O[C@@H](O[C@@H]2[C@@H](O)[C@H](OCCc3ccc(O)c(O)c3)O[C@H](CO)[C@H]2OC(=O)/C=C/c2ccc(O)c(O)c2)[C@H](O)[C@H](OC2OC[C@](O)(CO)[C@H]2O)[C@H]1O` (stereo partly specified), the GI50 with HCT-116 colon was 30.4 µM; in the assay with SR leukemia it was above 100 µM; in the assay on OVCAR-5 ovarian, above 100 µM; with RXF 393 renal it was 72 µM; with NCI-H226 lung it was above 100 µM; in the assay on MOLT-4 leukemia, above 100 µM. In addition, the GI50 was 24.8 µM with CAKI-1 renal and above 100 µM with HL-60(TB) leukemia. Moreover, the TGI in the assay with HCT-116 colon is 65.4 µM; in the assay with SR leukemia, above 100 µM; in the assay with OVCAR-5 ovarian, above 100 µM; in the assay on RXF 393 renal, above 100 µM; in the assay with NCI-H226 lung it was above 100 µM; in the assay on MOLT-4 leukemia it was above 100 µM. The TGI in the assay on CAKI-1 renal was 42.5 µM; in the assay with HL-60(TB) leukemia it was above 100 µM.
For the compound `Cc1cc2c(c(C(N)=O)c1C)-c1cc(Cl)cc(Cl)c1C2=O`, the total growth inhibition concentration (TGI) with HCT-116 colon, in the assay on HCC-2998 colon, in the assay with OVCAR-5 ovarian, in the assay with RXF 393 renal, in the assay on MOLT-4 leukemia and with HL-60(TB) leukemia was above 100 µM each time.
`Cc1ccccc1-n1c(N)c(-c2nc3ccccc3[nH]2)sc1=S`: the TGI in the assay with HCC-2998 colon is 34.8 µM; in the assay with OVCAR-5 ovarian, above 100 µM; in the assay with RXF 393 renal, 62.4 µM; in the assay on NCI-H226 lung, 74.4 µM; with MOLT-4 leukemia, 70.6 µM; in the assay on CAKI-1 renal, 71.4 µM. In addition, in the assay with HL-60(TB) leukemia, the TGI is 66.6 µM.
On to `CCOC(=O)C1Nc2ccccc2[C@H]2OCC[C@@H]12` (stereo partly specified), for which the TGI in the assay on HCT-116 colon, in the assay with HCC-2998 colon, in the assay with OVCAR-5 ovarian, with RXF 393 renal, in the assay with NCI-H226 lung and in the assay with MOLT-4 leukemia was above 100 µM throughout. Further, the TGI with CAKI-1 renal and in the assay on HL-60(TB) leukemia was above 100 µM throughout.
Turning to `CCCC(S(=O)(=O)c1ccccc1)S(=O)(=O)c1ccccc1`, the TGI in the assay with HCT-116 colon, in the assay on HCC-2998 colon, in the assay on OVCAR-5 ovarian, in the assay on RXF 393 renal, with NCI-H226 lung and in the assay on MOLT-4 leukemia was above 100 µM each time. Besides, the TGI in the assay on CAKI-1 renal and with HL-60(TB) leukemia was above 100 µM throughout.
With `O=C(/C=C/c1ccc(Cl)c(Cl)c1)c1cccc2ccccc12`, the TGI with HCT-116 colon was 15.2 µM; in the assay on HCC-2998 colon, 22.4 µM; with OVCAR-5 ovarian, 26.9 µM; in the assay with NCI-H226 lung it was 28.3 µM; in the assay with CAKI-1 renal, 20.4 µM; in the assay on HL-60(TB) leukemia, 7.21 µM.
Turning to `CC1=C(CC2C(=O)N(c3ccccc3)S(=O)(=O)NC2C)C(=O)N(c2ccccc2)S(=O)(=O)N1C` (stereo unspecified), the TGI in the assay on HCT-116 colon, in the assay on SR leukemia, in the assay with HCC-2998 colon, in the assay with OVCAR-5 ovarian, with NCI-H226 lung and in the assay with MOLT-4 leukemia was above 100 µM in each case. In the assay with CAKI-1 renal, this compound had a TGI above 100 µM.
Consider `COc1ccc(OC(=O)CC2Cc3cc(OC)c(OC)c(OC)c3-c3ccc(SC)c(=O)cc32)cc1` (stereo unspecified), for which the TGI was 11.2 µM with HCT-116 colon; above 100 µM in the assay with SR leukemia; 0.503 µM in the assay with HCC-2998 colon; 0.782 µM in the assay with NCI-H226 lung; above 100 µM with MOLT-4 leukemia; 2.35 µM in the assay on HL-60(TB) leukemia.
Regarding `CCOC(=O)/C(I)=C/c1cc(OC)c(OC)c(OC)c1`, the TGI with HCT-116 colon was 12.5 µM; with SR leukemia it was 8.8 µM; in the assay with HCC-2998 colon, 27.8 µM; in the assay on OVCAR-5 ovarian it was 20 µM; with NCI-H226 lung it was 25.9 µM; in the assay on MOLT-4 leukemia, 40.3 µM. Besides, the values for the total growth inhibition concentration (TGI) in the assay on CAKI-1 renal and in the assay on HL-60(TB) leukemia were 16.3 µM and 26.1 µM, respectively.
On to `CC1=NN(c2ccccc2)C(=O)/C1=C\c1ccc([N+](=O)[O-])cc1`, for which the TGI in the assay on HCC-2998 colon was 63.2 µM; in the assay with OVCAR-5 ovarian, 50.8 µM; in the assay with RXF 393 renal it was 41.4 µM; with MOLT-4 leukemia, 48.4 µM; in the assay with CAKI-1 renal, 73.6 µM; in the assay with HL-60(TB) leukemia, 56.2 µM.
As for `CC1=C(C(=O)Nc2ccc(Cl)c(Cl)c2)C(c2ccc([N+](=O)[O-])cc2)C(C(=O)Nc2ccc(Cl)c(Cl)c2)=C(C)N1`, the TGI was 3.51 µM in the assay with HCT-116 colon; 4.98 µM in the assay on HCC-2998 colon; 10 µM with OVCAR-5 ovarian; 6.16 µM in the assay on RXF 393 renal; 11.6 µM with NCI-H226 lung; above 100 µM in the assay on MOLT-4 leukemia. This compound also displayed a TGI with CAKI-1 renal of 16 µM.
Take `O=C(Cc1nc2ccccc2o1)C(=O)Nc1cccc(C(F)(F)F)c1`: the TGI in the assay with HCT-116 colon, in the assay with HCC-2998 colon, in the assay on OVCAR-5 ovarian, with NCI-H226 lung, with MOLT-4 leukemia and in the assay with CAKI-1 renal was above 100 µM throughout. In addition, the concentration for total growth inhibition (TGI) in the assay on HL-60(TB) leukemia is above 100 µM.
For `N#CNc1nc(N)c(-c2ccc(Cl)cc2)c(C(=O)Nc2nccs2)n1`, the TGI in the assay on HCT-116 colon, in the assay on HCC-2998 colon, in the assay on OVCAR-5 ovarian, with RXF 393 renal, in the assay with NCI-H226 lung and in the assay with MOLT-4 leukemia was above 100 µM each time. Further, the TGI in the assay with CAKI-1 renal and with HL-60(TB) leukemia was above 100 µM each time.
In the case of `Cc1cc(=O)c2c(O)cc3c(c2o1)CC=C(COC1OC(COC2OC(CO)C(O)C(O)C2O)C(O)C(O)C1O)CO3` (stereo unspecified), the TGI in the assay on HCT-116 colon, with SR leukemia, with HCC-2998 colon, in the assay on OVCAR-5 ovarian, in the assay on NCI-H226 lung and in the assay with MOLT-4 leukemia was above 100 µM throughout. In addition, the TGI in the assay with CAKI-1 renal is above 100 µM.
